The numbers were not newly measured in the CATMoS acute toxicity set (Mansouri et al. 2021), which cites them from elsewhere.

Each structure is given as a SMILES string.

The term LD50 denotes the dose expected to kill half of the subjects tested.

A short description of the data set: rat acute oral toxicity. Conditions: in vivo.
Regarding `c1ccc(C2(N3CCCCC3)CCCCC2)cc1`, the LD50 is 135 mg/kg.

As to `COc1ccc(CNc2cc(C(O)CNC(C)(C)C)ccc2O)cc1` (centres undefined), the LD50 is 1850 mg/kg.

Consider `CCCCCCCCCCCCOC(C[n+]1ccccc1)c1ccc(C(C)C)cc1` (centres undefined), for which the LD50 is 250 mg/kg.

For `CCOP(=S)(OCC)SCN1C(=O)c2ccccc2C1=O`, the LD50 was 43 mg/kg.

Turning to `CNC(=O)CSP(=O)(OC)SC` (centres undefined), the LD50 is 100 mg/kg.

Regarding `N#Cc1ccc([N+](=O)[O-])cc1`, the LD50 is 30 mg/kg.

With `CCOC(=O)c1c(C)cc2nc(COC(=O)NC)n(-c3ccccc3Cl)c(=O)c2c1C`, the LD50 is 2500 mg/kg.

With `O=S(=O)(O)c1ccccc1C=Cc1ccc(-c2ccc(C=Cc3ccccc3S(=O)(=O)O)cc2)cc1`, the LD50 was 5580 mg/kg.

With `CCCCCCCC/C=C\CCCCCCCC(=O)N(C)CCS(=O)(=O)O`, the LD50 is 1700 mg/kg.

Regarding `O=C(CCCN1CCN(C(=O)OC2CCCCC2)CC1)c1ccc(F)cc1`, the LD50 was 1080 mg/kg.

With `O[C@H]([C@H](O)[C@@H]1CO1)[C@H]1CO1` (racemic), the LD50 is 14 mg/kg.

For the compound `Clc1cccc(C2CCCCC2)c1Cl`, the LD50 was 4750 mg/kg.

For the compound `C=C(Cl)C#N`, the LD50 was 25 mg/kg.

Consider `CC(C)(C)c1ccc(CCC=O)cc1`, for which the median lethal dose (LD50) was 2700 mg/kg.

Consider `CCOC(=O)c1c(N)sc2c1CCN(Cc1ccccc1)C2`, for which the LD50 is 1200 mg/kg.

Take `CN1C(C(=O)Nc2ccccn2)=C(O)c2ccccc2S1(=O)=O`: the LD50 was 216 mg/kg.

Turning to `C#CCSP(=O)(NC(=O)CC)OC` (centres undefined), the LD50 was 500 mg/kg.

`O=C1CCc2cc(CCCN3CCN(c4ccccc4)CC3)ccc2N1`: the LD50 is 500 mg/kg.

Take `FC(F)(F)c1nc2cc(Cl)c(Cl)cc2[nH]1`: the LD50 is 7.88 mg/kg.

As to `Cc1cc(Cl)ccc1OCC(=O)Nc1ccccc1`, the LD50 is 4500 mg/kg.

For the compound `CCCCOC(=O)n1c(Br)nc(Br)c1Br`, the LD50 was 44 mg/kg.

As for `Oc1ccc(-c2ccccc2)cc1CN1CCCC1`, the LD50 was 30 mg/kg.

As for `FC1(F)C(Cl)=C(Cl)C(F)(F)C1(F)F`, the LD50 is 280 mg/kg.

In the case of `CCOP(=O)(OCC)Oc1cc(C)n(CC)c(=O)c1`, the LD50 was 1.62 mg/kg.

For `ClC(Cl)(Cl)Sn1cccn1`, the LD50 was 350 mg/kg.

For the compound `CN1CN(CCO)CSC1=S`, the LD50 was 1000 mg/kg.

As to `CCOc1ccc(NC(=O)CC(C)O)cc1` (centres undefined), the LD50 was 7000 mg/kg.

Take `CC(OCCCl)OCCCl`: the LD50 was 310 mg/kg.

With `C=CC(=O)OCC(CC)(COC(=O)C=C)COC(=O)C=C`, the LD50 is 5190 mg/kg.

For `CCCCCCCCCOC(=O)C1=CNC=C(C(=O)NC2CCCC2)C1c1ccccc1[N+](=O)[O-]` (centres undefined), the LD50 was 10 mg/kg.

For the compound `COP(=S)(OC)SC1CCSc2ccc(Cl)cc21` (centres undefined), the LD50 is 200 mg/kg.

`CC(C)=CC1C(C(=O)O)C1(C)C` (centres undefined): the LD50 is 2500 mg/kg.

For `O=C(O)CF`, the LD50 is 4.68 mg/kg.

Consider `Oc1ccc(C(O)CNCCCCCCNCC(O)c2ccc(O)c(O)c2)cc1O` (centres undefined), for which the LD50 was 10000 mg/kg.

`C=CCC1(C(C)CCC)C(=O)N=C(O)NC1=O` (centres undefined): the LD50 is 125 mg/kg.

Consider `CCc1cc(C(N)=S)ccn1`, for which the LD50 was 1320 mg/kg.

Take `Cc1cc(Br)ccc1-n1c(C)nc2ccccc2c1=O`: the LD50 was 240 mg/kg.

For the compound `CN(C)CC#N`, the LD50 was 50 mg/kg.

For the compound `CC(C)COC(=O)COc1ccc(Cl)cc1Cl`, the LD50 was 300 mg/kg.

Take `COc1ccc(-c2cc(N)c3c(c2O)C(=O)c2c(N)ccc(O)c2C3=O)cc1`: the LD50 is 6380 mg/kg.

In the case of `Cc1cccc2ccccc12`, the LD50 is 1840 mg/kg.

As to `CON(C)C(=O)Nc1ccc(Br)c(Cl)c1`, the LD50 was 2150 mg/kg.

On to `COc1c(OP(=S)(OCC(C)C)OCC(C)C)cnn(C)c1=O`, for which the LD50 is 135 mg/kg.

Turning to `CN(SC(Cl)(Cl)Cl)C(=O)Oc1cccc2c1OC(C)(C)C2`, the LD50 is 125 mg/kg.

As to `CCCCCCCCCCCCCCCCCOCC`, the LD50 was 1260 mg/kg.

In the case of `Nc1cccc(-n2ccccc2=O)c1`, the LD50 was 2300 mg/kg.

For the compound `COc1ccc(N)c(OC)c1`, the LD50 was 464 mg/kg.

Take `O=C(Oc1cccc(O)c1)c1ccccc1`: the LD50 was 800 mg/kg.

As to `CCSCCOc1ccc([N+](=O)[O-])cc1`, the LD50 is 826 mg/kg.
